1 compound from ChEMBL document CHEMBL4673406, “Discovery and Preclinical Evaluation of BMS-986242, a Potent, Selective Inhibitor of Indoleamine-2,3-dioxygenase 1” (ACS Med Chem Lett, 2021) can be followed below.

Series [1] is described as follows: Half life in dog at 1 mg/kg, iv. In kind it is ADME, organism-based, Canis lupus familiaris. The settings on record: in vivo.
In series [2] the target is Indoleamine 2,3-dioxygenase 1 (Mus musculus) (UniProt P28776). In words: In vivo inhibition of IDO1 in nu/nu mouse xenografted with human SK-OV-3 cells assessed as reduction in kynurenine level at 30 mg/kg, po qd by HPLC-MS/MS analysis relative to control. In kind it is functional, organism-based.
The nature of series [3]: Toxicity in rat assessed as effect on cardiovascular system by telemetry. The settings on record: in vivo.
Series [4] can be described thus: Oral bioavailability in cynomolgus monkey at 5 mg/kg. Particulars: in vivo. It is filed as ADME, organism-based, Macaca fascicularis.
Series [5] can be described thus: AUC in cynomolgus monkey at 1 mg/kg, iv. The arrangement: dose 1 mg/kg. The settings on record: in vivo. It is filed as ADME, organism-based, Macaca fascicularis.
The nature of series [6]: Volume of distribution at steady state in cynomolgus monkey at 1 mg/kg, iv. It is filed as ADME, organism-based, Macaca fascicularis. The settings on record: in vivo.
Series [7] can be described thus: AUC in dog at 5 mg/kg, po. Particulars: in vivo. The arrangement: dose 5 mg/kg. It is filed as ADME, organism-based, Canis lupus familiaris.
Series [8] can be described thus: Oral bioavailability in rat at 2 mg/kg. In kind it is ADME, organism-based. The settings on record: in vivo.
Series [9] in a line: Volume of distribution at steady state in mouse at 0.5 mg/kg, iv. In kind it is ADME, organism-based. Particulars: in vivo.
Series [10] can be described thus: Protein binding in mouse plasma assessed as free fraction. It is filed as ADME, cell-free.
In series [11] the target is T1, Nuclear receptor subfamily 1 group I member 2 (Homo sapiens, UniProt O75469).
T1 sequence (O75469 whole entry): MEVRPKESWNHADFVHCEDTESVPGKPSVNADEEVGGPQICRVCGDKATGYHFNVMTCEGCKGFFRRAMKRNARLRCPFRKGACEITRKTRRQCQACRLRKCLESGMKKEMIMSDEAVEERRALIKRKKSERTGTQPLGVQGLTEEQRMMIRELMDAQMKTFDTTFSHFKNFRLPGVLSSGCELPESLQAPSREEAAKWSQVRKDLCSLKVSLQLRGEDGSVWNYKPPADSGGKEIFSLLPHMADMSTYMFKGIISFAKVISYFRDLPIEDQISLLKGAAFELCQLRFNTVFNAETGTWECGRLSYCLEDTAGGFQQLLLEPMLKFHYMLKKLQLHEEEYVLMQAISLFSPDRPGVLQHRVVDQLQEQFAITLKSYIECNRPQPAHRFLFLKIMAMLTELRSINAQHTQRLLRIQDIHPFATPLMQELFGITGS
In words: Transactivation of PXR (unknown origin). It is filed as ADME.

Series [12] is described as follows: Inhibition of calcium channel (unknown origin) by patch clamp method. The arrangement: species or system Homo sapiens.
Another series has as its target hERG (Homo sapiens, UniProt Q12809). In words: Inhibition of human ERG at 10 uM by patch clamp method relative to control.
A further series has as its target Cytochrome P450 2C19 (Homo sapiens, UniProt P33261). Nature of the series: Inhibition of human CYP2C19. It is filed as ADME.
Another series has as its target CYP450 (Homo sapiens, UniProt P04798+P05177+P05181+P08684+P10632+P10635+P11509+P11712+P13584+P20813+P20815+P20853+P24462+P24903+P33260+P33261+P51589+P78329+P98187+Q02928+Q08477+Q16678+Q16696+Q5TCH4+Q6VVX0+Q7Z449+Q8TAV3+Q96SQ9+Q9HB55). Nature of the series: Inhibition of human CYP450. In kind it is ADME, protein assay.
A short description of series [13]: Metabolic stability in rat hepatocytes assessed as UGT-mediated compound glucuronidation by measuring half life. In kind it is ADME, cell-based, Hepatocyte.
In series [14] the target is UDP-glucuronosyltransferases (UGTs) (Homo sapiens, UniProt O60656+O75310+O75795+P06133+P0DTE4+P0DTE5+P16662+P19224+P22309+P22310+P35503+P35504+P36537+P54855+Q6UWM9+Q9BY64+Q9HAW7+Q9HAW8+Q9HAW9). In words: Metabolic stability in human hepatocytes assessed as UGT-mediated compound glucuronidation by measuring half life. In kind it is ADME, cell-based, Hepatocyte.
The nature of series [15]: Metabolic stability in cynomolgus monkey hepatocytes assessed as CYP450-mediated compound metabolism by measuring half life. It is filed as ADME, cell-based, Macaca fascicularis, Hepatocyte.
Series [16] deals with Indoleamine 2,3-dioxygenase 1 (Mus musculus, UniProt P28776). In words: Inhibition of IDO1 in IFNgamma-stimulated mouse M109 cells preincubated for 2 hrs followed by IFNgamma stimulation and measured after 18 hrs by. In kind it is cell-based.
In series [17] the target is Indoleamine 2,3-dioxygenase 1 (Homo sapiens, UniProt P14902). In words: Inhibition of IDO1 in IFNgamma-stimulated human HeLa cells preincubated for 2 hrs followed by IFNgamma stimulation and measured after 18 hrs by.
Series [18] in a line: Half life in mouse at 0.5 mg/kg, iv. In kind it is ADME, organism-based. The settings on record: in vivo.
The nature of series [19]: in vitro. Particulars: mouse, liver microsomes.
Description: Metabolic stability in mouse liver microsomes assessed as parent compound remaining at 0.5 uM measured after 10 mins
Series [20] in a line: in vitro. The settings on record: human, liver microsomes.
Description: Metabolic stability in human liver microsomes assessed as parent compound remaining at 0.5 uM measured after 10 mins

Cytochrome P450 2C19, sequence (P33261 whole entry): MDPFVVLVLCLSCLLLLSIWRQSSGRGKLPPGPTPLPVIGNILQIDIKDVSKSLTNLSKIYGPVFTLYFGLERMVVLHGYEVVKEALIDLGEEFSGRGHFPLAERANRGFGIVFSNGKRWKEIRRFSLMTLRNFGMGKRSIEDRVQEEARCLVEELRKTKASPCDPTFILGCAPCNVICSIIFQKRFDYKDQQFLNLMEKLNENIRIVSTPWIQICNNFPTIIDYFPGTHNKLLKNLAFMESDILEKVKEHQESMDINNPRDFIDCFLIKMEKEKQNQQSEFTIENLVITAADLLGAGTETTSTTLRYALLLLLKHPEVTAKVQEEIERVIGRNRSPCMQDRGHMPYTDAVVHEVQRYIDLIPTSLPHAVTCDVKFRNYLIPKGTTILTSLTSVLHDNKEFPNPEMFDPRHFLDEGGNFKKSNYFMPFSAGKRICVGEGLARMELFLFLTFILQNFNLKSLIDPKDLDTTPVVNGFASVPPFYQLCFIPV
Indoleamine 2,3-dioxygenase 1 (Homo sapiens, UniProt P14902), sequence (P14902 whole entry): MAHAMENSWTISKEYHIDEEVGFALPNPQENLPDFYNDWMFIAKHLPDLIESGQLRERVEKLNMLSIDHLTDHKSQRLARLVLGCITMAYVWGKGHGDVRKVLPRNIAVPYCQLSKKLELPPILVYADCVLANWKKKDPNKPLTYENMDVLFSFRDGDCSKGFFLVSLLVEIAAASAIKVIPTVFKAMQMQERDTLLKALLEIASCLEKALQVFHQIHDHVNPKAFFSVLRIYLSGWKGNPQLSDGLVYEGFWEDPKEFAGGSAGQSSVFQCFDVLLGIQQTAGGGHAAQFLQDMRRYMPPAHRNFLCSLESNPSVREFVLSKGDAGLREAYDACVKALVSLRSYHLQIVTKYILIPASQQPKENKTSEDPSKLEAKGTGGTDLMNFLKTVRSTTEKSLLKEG
Indoleamine 2,3-dioxygenase 1 (Mus musculus), sequence (P28776 whole entry, looked up): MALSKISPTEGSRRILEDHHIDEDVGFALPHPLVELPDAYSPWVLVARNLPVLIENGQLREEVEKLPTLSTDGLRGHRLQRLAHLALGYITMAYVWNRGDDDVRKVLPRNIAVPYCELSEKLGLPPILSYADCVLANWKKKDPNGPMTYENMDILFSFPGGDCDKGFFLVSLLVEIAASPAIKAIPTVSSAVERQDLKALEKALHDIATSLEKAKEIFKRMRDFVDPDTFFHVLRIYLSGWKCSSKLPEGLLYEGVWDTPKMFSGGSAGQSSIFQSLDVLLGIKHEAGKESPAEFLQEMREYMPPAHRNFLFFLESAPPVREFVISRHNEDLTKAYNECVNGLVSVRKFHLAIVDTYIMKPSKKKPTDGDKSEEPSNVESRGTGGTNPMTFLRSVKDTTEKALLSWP
Indoleamine 2,3-dioxygenase 1 (Mus musculus, UniProt P28776), sequence (P28776 whole entry): as the sequence (P28776 whole entry, looked up) above
hERG, sequence (Q12809 whole entry): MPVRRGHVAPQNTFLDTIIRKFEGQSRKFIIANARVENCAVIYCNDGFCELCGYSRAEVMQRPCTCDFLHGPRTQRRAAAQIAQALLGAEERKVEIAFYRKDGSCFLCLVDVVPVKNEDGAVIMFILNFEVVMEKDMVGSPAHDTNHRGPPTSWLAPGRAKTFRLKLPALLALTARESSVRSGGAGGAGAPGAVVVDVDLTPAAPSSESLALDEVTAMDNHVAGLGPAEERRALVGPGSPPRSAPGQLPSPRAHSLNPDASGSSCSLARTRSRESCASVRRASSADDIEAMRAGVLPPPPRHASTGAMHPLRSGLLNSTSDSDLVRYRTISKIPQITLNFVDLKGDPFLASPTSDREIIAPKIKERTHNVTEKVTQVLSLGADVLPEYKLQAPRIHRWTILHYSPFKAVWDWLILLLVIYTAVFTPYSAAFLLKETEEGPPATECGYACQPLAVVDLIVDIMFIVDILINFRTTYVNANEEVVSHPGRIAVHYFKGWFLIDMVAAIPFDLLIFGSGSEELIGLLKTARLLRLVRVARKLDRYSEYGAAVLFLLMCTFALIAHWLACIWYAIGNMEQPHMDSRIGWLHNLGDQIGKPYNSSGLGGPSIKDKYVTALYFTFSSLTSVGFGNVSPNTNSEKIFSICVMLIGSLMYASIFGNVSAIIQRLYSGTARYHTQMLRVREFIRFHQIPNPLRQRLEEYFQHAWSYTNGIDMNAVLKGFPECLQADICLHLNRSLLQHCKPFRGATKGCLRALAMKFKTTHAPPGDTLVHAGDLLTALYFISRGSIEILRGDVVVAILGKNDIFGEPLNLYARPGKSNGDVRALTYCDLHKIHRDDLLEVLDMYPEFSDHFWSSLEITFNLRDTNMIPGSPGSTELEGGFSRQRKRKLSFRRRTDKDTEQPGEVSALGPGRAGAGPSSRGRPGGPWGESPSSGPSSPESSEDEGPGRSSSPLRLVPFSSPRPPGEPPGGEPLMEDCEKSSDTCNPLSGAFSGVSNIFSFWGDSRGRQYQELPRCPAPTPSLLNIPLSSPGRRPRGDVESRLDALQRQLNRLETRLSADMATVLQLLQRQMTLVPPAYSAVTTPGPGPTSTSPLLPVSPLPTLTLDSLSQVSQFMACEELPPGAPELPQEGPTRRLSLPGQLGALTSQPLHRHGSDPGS

In the case of `C[C@@H](NC(=O)c1ccc(Cl)cc1)[C@H]1CC[C@@H](c2ccnc3ccc(F)cc32)CC1`, the t1/2 was found to be 19 min in series [1] and 8 min in [18]. Moreover, in [2], the inhibition amounted to 59%. For the same compound, the Activity entry in series [3] is recorded as “Non-Toxic”. Also, the results for the bioavailability in [4] and in series [8] were 42% and 127%, respectively. The values for the exposure (AUC) in series [5] and in series [7] were 3.4 µM·h and 17.4 µM·h, respectively. In addition, the figures for the Vdss in series [6] and in series [9] were 1 L/kg and 17 L/kg, respectively. For the same compound, the Fu in [10] was < 0.2%. In series [11], the EC50 is > 50 µM. Moreover, the IC50 is > 25 µM in [12]; 3.37 µM against Cytochrome P450 2C19; > 15 µM on CYP450; 0.002 µM in [16]; 0.002 µM in series [17]. At 10 µM the inhibition against hERG was 87%. The half-life stood at 93 min in series [13], 120 min in series [14] and 2 min in series [15]. Moreover, the share remaining at 10 min, 0.5 µM stood at 21% in the series “in vitro [19]” and 54% in “in vitro [20]”.
